The compounds below were run against Rho-associated protein kinase 2 (Homo sapiens, UniProt O75116) (assay: Inhibition of ROCK2 (unknown origin) assessed as phosphorylation of MYPT1 using Tetramethylbenzidine as substrate in presence of ATP).
Rho-associated protein kinase 2, sequence (O75116 whole entry): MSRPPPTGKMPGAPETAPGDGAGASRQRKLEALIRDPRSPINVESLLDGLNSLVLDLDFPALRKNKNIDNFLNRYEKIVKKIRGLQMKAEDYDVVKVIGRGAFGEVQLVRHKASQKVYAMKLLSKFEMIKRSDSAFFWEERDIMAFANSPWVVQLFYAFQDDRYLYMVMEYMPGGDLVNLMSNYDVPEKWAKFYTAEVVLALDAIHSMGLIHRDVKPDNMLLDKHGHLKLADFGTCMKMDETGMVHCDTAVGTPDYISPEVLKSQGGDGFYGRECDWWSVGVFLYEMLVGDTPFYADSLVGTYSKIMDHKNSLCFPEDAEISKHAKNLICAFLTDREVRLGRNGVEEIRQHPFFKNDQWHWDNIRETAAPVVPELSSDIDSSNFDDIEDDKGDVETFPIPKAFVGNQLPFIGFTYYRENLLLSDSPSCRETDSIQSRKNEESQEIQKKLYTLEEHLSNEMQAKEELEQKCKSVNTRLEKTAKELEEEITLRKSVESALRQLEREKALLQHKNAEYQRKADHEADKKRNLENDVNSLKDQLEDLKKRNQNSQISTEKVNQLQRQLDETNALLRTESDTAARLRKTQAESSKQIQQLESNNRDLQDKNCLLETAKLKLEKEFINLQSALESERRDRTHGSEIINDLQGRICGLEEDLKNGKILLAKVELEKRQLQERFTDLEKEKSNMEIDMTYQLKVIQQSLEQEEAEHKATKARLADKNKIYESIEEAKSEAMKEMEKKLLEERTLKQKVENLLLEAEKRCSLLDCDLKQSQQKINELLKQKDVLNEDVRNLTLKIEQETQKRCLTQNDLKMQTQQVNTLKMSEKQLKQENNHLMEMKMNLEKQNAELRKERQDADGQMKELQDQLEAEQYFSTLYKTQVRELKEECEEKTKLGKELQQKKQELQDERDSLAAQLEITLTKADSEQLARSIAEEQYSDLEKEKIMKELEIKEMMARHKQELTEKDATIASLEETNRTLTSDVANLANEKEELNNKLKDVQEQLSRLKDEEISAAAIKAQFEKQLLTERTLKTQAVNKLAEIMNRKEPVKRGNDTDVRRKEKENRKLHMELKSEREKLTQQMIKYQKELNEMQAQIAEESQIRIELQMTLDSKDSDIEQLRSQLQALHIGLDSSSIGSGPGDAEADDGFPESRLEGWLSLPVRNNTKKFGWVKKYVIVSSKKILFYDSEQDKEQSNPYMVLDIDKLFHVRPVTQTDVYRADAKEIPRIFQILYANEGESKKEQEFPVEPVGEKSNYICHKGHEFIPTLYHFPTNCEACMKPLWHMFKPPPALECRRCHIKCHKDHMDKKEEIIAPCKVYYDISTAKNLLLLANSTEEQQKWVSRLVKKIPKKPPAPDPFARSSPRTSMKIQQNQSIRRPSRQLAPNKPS

COC(=O)c1ccc(N(C)C(C(=O)c2ccccc2)c2ccccc2)cc1 (stereo not drawn) and CCC(O)CNCc1ccnc2ccc(OC)cc12 (stereo not drawn) are within 1.5-fold of each other in IC50: 9.01 nM for the first, 8.02 nM for the second.

Compound COCSC(C)CCSCCO (stereo not drawn) has an IC50 of 8.4 nM.

From ChEMBL document CHEMBL4619824, “Identification of Novel Rho-Kinase-II Inhibitors with Vasodilatory Activity” (ACS Med Chem Lett, 2020)
